Reference: article PMC1413570, “Testing Electrostatic Complementarity in Enzyme Catalysis: Hydrogen Bonding in the Ketosteroid Isomerase Oxyanion Hole” (PLoS Biology, 2006)
Like-named read-outs stand apart in the source and are kept apart here. Marks after values point to notes of the source that are not given here.

Key:
[1] = Determination of phenol pKa values (literature or spectral titration)
[2] = molecular target: pKSI^D40N (ketosteroid isomerase) (Pseudomonas putida, UniProt P07445, D34C/D40N); test: biochemical; assay type: binding
Sequence of pKSI^D40N (ketosteroid isomerase) (P07445 whole entry D34C/D40N): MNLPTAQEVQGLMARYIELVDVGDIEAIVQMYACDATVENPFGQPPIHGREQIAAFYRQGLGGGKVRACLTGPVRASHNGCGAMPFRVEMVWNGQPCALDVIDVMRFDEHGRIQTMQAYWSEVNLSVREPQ

[3] = molecular target: tKSI^D40N (ketosteroid isomerase) (Comamonas testosteroni, UniProt P00947, D38N); test: biochemical; assay type: binding, Commamonas testosteroni
Sequence of tKSI^D40N (ketosteroid isomerase) (P00947 whole entry D38N): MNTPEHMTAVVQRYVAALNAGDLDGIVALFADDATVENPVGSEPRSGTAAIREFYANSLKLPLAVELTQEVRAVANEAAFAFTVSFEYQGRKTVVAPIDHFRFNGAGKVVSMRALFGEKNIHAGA

[4] = molecular target: pKSI^D40N (Pseudomonas putida, UniProt P07445, D34C/D40N); assay type: binding; details: pH 7.2, 25 °C
Sequence of pKSI^D40N (P07445 whole entry D34C/D40N): as the sequence (P07445 whole entry D34C/D40N) above
Procedure: Briefly, the affinity and enthalpy of binding of a high-affinity reference ligand (L ref) were first determined by direct titration of KSI ( Figure 14A) [ [147]]. […] Prior to ITC experiments, enzyme was dialyzed into buffer containing 10 mM HEPES (pH 7.2), 100 mM NaCl, 0.1 mM EDTA, 0.1 mM Tri(2-carboxyethyl)phosphine hydrochloride. All ligands were dissolved in the final dialysis buffer, and all samples were degassed under vacuum. ITC experiments were performed using a VP-ITC (MicroCal, Northampton, Massachusetts, United States) at 25 °C.
After background subtraction, the data were fit by nonlinear least squares regression using a displacement model, with the stoichiometry, association constant, and change of enthalpy of interaction of the weak ligand as the free variables, and the association constant and change of enthalpy of the tight ligand fixed based on the values obtained from direct titration [ [146]].

[5] = molecular target: T1, tKSI^D40N (Comamonas testosteroni, UniProt P00947, D38N); design: species or system Commamonas testosteroni; details: for δ1, chemical shift of most downfield peak in complex / δ2, chemical shift of second downfield peak in complex: pH 7.2, −3 °C
T1 sequence (P00947 whole entry D38N, looked up): as the sequence (P00947 whole entry D38N) above

[6] = Enthalpies of ionization of phenols by titration with NaOH; assay type: physicochemical
Source text: The enthalpy of ionization of HEPES, used to correct for proton transfer to buffer, is 5.02 kcal/mol [ [149]].

[7] = physchem
[8] = from literature; cited from earlier work
[9] = molecular target: T1, tKSI^D40N; details: read-out: apparent affinity, previous assay; pH 7; cited from earlier work
[10] = design: method as in earlier work; details: cited from earlier work
[11] = molecular target: KSI; design: method as in PMID 7918439; details: less precise estimate; read-out: affinity of equilenin estimated by previous assays; cited from earlier work
[12] = spectral titration, 25 °C, ionic strength 100 mM
[13] = solution with ionic strength 100 mM maintained with NaCl
[14] = apparent affinity at pH 8 ([picture]), pH 8, errors in parenthesis are average deviations
[15] = Displacement assay, phenolate form
[16] = Displacement assay, uncorrected for enzyme ionization enthalpy
[17] = pH 8, errors in parenthesis are average deviations, read-out: apparent affinity at pH 8 ([picture])

Q: For `Oc1ccc(F)c(F)c1F` [2,3,4-F3], which pKa [1, 12] is on record?
A: 7.7^b

Q: For `Oc1cc(F)cc(F)c1F` [2,3,5-F3, 2,3,5-trifluorophenol], which pKa [1, 13] is on record?
A: 7.1

Q: With `Oc1cccc(F)c1F` [2,3-F2] as the molecule, how does the pKa [1, 12] read?
A: 7.7^b

Q: Which pKa [1, 13] does the source give for `Oc1cc(F)c(F)cc1F` [2,4,5-F3, 2,4,5-trifluorophenol] here?
A: 7.7

Q: With `Oc1ccc(F)cc1F` [2,4-F2] as the molecule, how does the pKa [1, 12] read?
A: 8.6^b

Q: With `Oc1cc(F)ccc1F` [2,5-F2] as the molecule, how does the pKa [1, 12] read?
A: 7.7^b

Q: For `Oc1cc(F)c(F)c(F)c1` [3,4,5-F3, 3,4,5-trifluorophenol], which Kd [2, 14] is on record?
A: 6.1 µM

Q: What about the Kd [3] of the same molecule?
A: 17 µM

Q: And the “∆G of binding” value ([4]; Direct Titration)?
A: -11.51 (0.04) kcal/mol

Q: And the “∆Hrel (relative enthalpy of binding)” value ([4]; Direct Titration)?
A: -6.0 (0.1) kcal/mol

Q: What about the “∆G of binding” value [4, 15] of the same molecule?
A: -11.1 (0.1) kcal/mol

Q: And the “∆Hrel (relative enthalpy of binding)” value [4, 16]?
A: -5.8 (0.3) kcal/mol

Q: And the “δ1, chemical shift of most downfield peak in complex” value (from here on “δ1, chemical shift”) [5]?
A: 16.3 ppm

Q: And the “δ2, chemical shift of second downfield peak in complex” value (“δ2, chemical shift” below) [5]?
A: 14.9 ppm

Q: What about the “∆Hion (heat of ionization)” value ([6]; Ionic strength 0.1) of the same molecule?
A: 5.62 (0.06)

Q: What about the pKa [1] of the same molecule?
A: 8.2

Q: And the pKa [1, 13]?
A: 8.2

Q: Which results are given for `Oc1ccc(Cl)c(Cl)c1` [3,4-Cl2, 3,4-dichlorophenol]?
A: δ1, chemical shift of most downfield peak in complex [5]: 16.4 ppm; δ2, chemical shift of second downfield peak in complex [5]: 15.6 ppm; pKa [7]: 8.5

Q: With `Oc1ccc(F)c(F)c1` [3,4-F2] as the molecule, how does the Kd [2, 17] read?
A: 31 µM

Q: What about the Kd [3, 17] of the same molecule?
A: 69 µM

Q: What about the “∆G of binding” value [4, 15] of the same molecule?
A: -11.14 (0.01) kcal/mol

Q: What about the “∆Hrel (relative enthalpy of binding)” value [4, 16] of the same molecule?
A: -8.53 (0.05) kcal/mol

Q: What about the “∆Hion (heat of ionization)” value ([6]; Ionic strength 0.1) of the same molecule?
A: 7.04 (0.06)

Q: Which “δ1, chemical shift” value [5] does the source give for `Oc1cc(Cl)cc(Cl)c1` [3,5-Cl2] here?
A: 16.6 ppm

Q: What about the “δ2, chemical shift” value [5] of the same molecule?
A: 14.8 ppm

Q: What about the pKa [1, 12] of the same molecule?
A: 8.1

Q: Which Kd [2, 17] does the source give for `Oc1cc(F)cc(F)c1` [3,5-F2] here?
A: 8.4 µM

Q: And the Kd [3, 17]?
A: 20 µM

Q: What about the “∆G of binding” value ([4]; Direct Titration) of the same molecule?
A: -11.23 (0.03) kcal/mol

Q: And the “∆Hrel (relative enthalpy of binding)” value ([4]; Direct Titration)?
A: -6.9 (0.1) kcal/mol

Q: What about the “∆G of binding” value [4, 15] of the same molecule?
A: -11.1 (0.2) kcal/mol

Q: And the “∆Hrel (relative enthalpy of binding)” value [4, 16]?
A: -6.7 (0.8) kcal/mol

Q: And the “∆Hion (heat of ionization)” value ([6]; Ionic strength 0.1)?
A: 5.73 (0.07)

Q: Which pKa [8] does the source give for `Oc1ccccc1F` [Phenol 2-F, 2-fluorophenol] here?
A: 8.8

Q: For `Oc1cccc(Br)c1` [Phenol 3-Br], which “δ1, chemical shift” value [5] is on record?
A: 17.0 ppm

Q: What about the “δ2, chemical shift” value [5] of the same molecule?
A: 15.6 ppm

Q: Which “δ1, chemical shift” value [5] does the source give for `O=[N+]([O-])c1ccc(O)cc1C(F)(F)F` [Phenol 3-CF3-4-NO2] here?
A: 14.9 ppm

Q: What about the “δ2, chemical shift” value [5] of the same molecule?
A: 14.5 ppm

Q: And the pKa [1, 12]?
A: 6.3

Q: With `Oc1cccc(C(F)(F)F)c1` [Phenol 3-CF3] as the molecule, how does the “δ1, chemical shift” value [5] read?
A: 17.0 ppm

Q: What about the “δ2, chemical shift” value [5] of the same molecule?
A: 16.1 ppm

Q: And the pKa [1, 12]?
A: 8.7

Q: What does the source list for `N#Cc1cccc(O)c1` [Phenol 3-CN]?
A: δ1, chemical shift of most downfield peak in complex [5]: 16.4 ppm; δ2, chemical shift of second downfield peak in complex [5]: 15.6 ppm

Q: What does the source list for `Oc1cccc(Cl)c1` [Phenol 3-Cl]?
A: δ1, chemical shift of most downfield peak in complex [5]: 17.1 ppm; δ2, chemical shift of second downfield peak in complex [5]: 15.6 ppm

Q: Which results are given for `Oc1cccc(F)c1` [Phenol 3-F, 3-fluorophenol]?
A: Kd [2, 14]: 41 µM; Kd [3]: 110 µM; ∆G of binding [4, 15]: -11.10 (0.05) kcal/mol; ∆Hion (heat of ionization) ([6]; Ionic strength 0.1): 6.29 (0.05)

Q: Which results are given for `O=[N+]([O-])c1ccc(O)cc1F` [Phenol 3-F-4-NO2, 3-fluoro-4-nitrophenol]?
A: δ1, chemical shift of most downfield peak in complex [5]: 14.4 ppm; δ2, chemical shift of second downfield peak in complex [5]: 14.3 ppm; pKa [7]: 6.1

Q: For `Oc1cc(F)cc(C(F)(F)F)c1` [Phenol 3-F-5-CF3, 3-fluoro-5-(trifluoromethyl)phenol], which “δ1, chemical shift” value [5] is on record?
A: 16.4 ppm

Q: What about the “δ2, chemical shift” value [5] of the same molecule?
A: 15.6 ppm

Q: And the pKa ([1]; solution of ionic strength 100 mM maintained with NaCl)?
A: 8.2

Q: Which results are given for `Oc1cccc(I)c1` [Phenol 3-I, 3-iodophenol]?
A: δ1, chemical shift of most downfield peak in complex [5]: 16.8 ppm; δ2, chemical shift of second downfield peak in complex [5]: 15.9 ppm; pKa [8]: 9.2

Q: With `O=[N+]([O-])c1cc(O)ccc1Cl` [Phenol 3-NO2-4-Cl] as the molecule, how does the “δ1, chemical shift” value [5] read?
A: 15.8 ppm

Q: And the “δ2, chemical shift” value [5]?
A: 15.4 ppm

Q: And the pKa [1, 12]?
A: 7.8

Q: With `O=[N+]([O-])c1cccc(O)c1` [Phenol 3-NO2] as the molecule, how does the “δ1, chemical shift” value [5] read?
A: 16.4 ppm

Q: What about the “δ2, chemical shift” value [5] of the same molecule?
A: 15.5 ppm

Q: With `CCc1cccc(O)c1` [Phenol 3-ethyl, 3-ethylphenol] as the molecule, how does the pKa [8] read?
A: 9.9

Q: Which pKa [1, 13] does the source give for `CC(C)c1cccc(O)c1` [Phenol 3-isopropyl, 3-isopropylphenol] here?
A: 9.9

Q: Which “δ1, chemical shift” value [5] does the source give for `Oc1ccc(C(F)(F)F)cc1` [Phenol 4-CF3] here?
A: 16.4 ppm

Q: What about the “δ2, chemical shift” value [5] of the same molecule?
A: 15.9 ppm

Q: And the pKa [1, 12]?
A: 8.9

Q: Which Kd ([2]; Kd from fit of pH dependence of binding to Equation 4, phenol pKa fixed at 8.0, enzyme pKa 5.5) does the source give for `N#Cc1ccc(O)cc1` [Phenol 4-CN, 4-cyanophenol] here?
A: 0.016 ± 0.002 µM

Q: What about the “δ1, chemical shift” value [5] of the same molecule?
A: 15.6 ppm

Q: For `Oc1ccc(Cl)cc1` [Phenol 4-Cl, 4-chlorophenol], which Kd [3] is on record?
A: 40 ± 7 µM

Q: What about the Kd [9] of the same molecule?
A: 7.9 ± 1.3 µM

Q: For `Cc1cc(O)ccc1F` [Phenol 4-F-3-CH3, 4-Fluoro-3-methylphenol], which pKa [1, 13] is on record?
A: 9.8

Q: Which Kd [2, 17] does the source give for `Oc1ccc(F)cc1` [Phenol 4-F] here?
A: 133 µM

Q: And the Kd [3, 17]?
A: 320 µM

Q: What about the “∆G of binding” value [4, 15] of the same molecule?
A: -11.34 (0.02) kcal/mol

Q: What about the “∆Hrel (relative enthalpy of binding)” value [4, 16] of the same molecule?
A: -9.8 (0.1) kcal/mol

Q: And the “∆Hion (heat of ionization)” value ([6]; Ionic strength 0.0)?
A: 5.97 (0.03)

Q: What about the “∆Hion (heat of ionization)” value ([6]; Ionic strength 0.1) of the same molecule?
A: 6.21 (0.06)

Q: And the “∆Hion Lit value” [10]?
A: 5.93 (0.05)

Q: With `Oc1ccc(I)cc1` [Phenol 4-I] as the molecule, how does the “δ1, chemical shift” value [5] read?
A: 16.7 ppm

Q: Which results are given for `O=[N+]([O-])c1ccc(O)cc1` [Phenol 4-NO2, 4-nitrophenol]?
A: Kd ([2]; apparent affinity of the phenol for the enzyme (Equation 3), pH 6.9): 1.8 ± 0.2 µM; Kd ([2]; pH-independent affinity of the phenolate form for the protonated enzyme (Equation 4), converted from apparent affinity at pH 6.9): 0.026 ± 0.002 µM; δ1, chemical shift of most downfield peak in complex [5]: 15.0 ppm; δ2, chemical shift of second downfield peak in complex [5]: 14.8 ppm

Q: Which “δ1, chemical shift” value [5] does the source give for `CC(=O)c1ccc(O)cc1` [Phenol 4-acetyl, 4-Acetylphenol] here?
A: 16.0 ppm

Q: And the “δ2, chemical shift” value [5]?
A: 15.4 ppm

Q: What about the pKa [8] of the same molecule?
A: 8.1

Q: With `CC(C)c1ccc(O)cc1` [Phenol 4-isoproyl, 4-isopropylphenol] as the molecule, how does the pKa [7] read?
A: 10

Q: Which pKa [8] does the source give for `Cc1ccc(O)cc1` [Phenol 4-methyl, 4-methylphenol] here?
A: 10.2

Q: For `Oc1ccccc1` [Phenol, phenol], which Kd [2, 14] is on record?
A: 135 µM

Q: What about the Kd [3, 14] of the same molecule?
A: 410 µM

Q: And the Kd ([3]; apparent affinity, new assay, pH 7)?
A: 430 ± 80 µM

Q: And the “∆G of binding” value [4, 15]?
A: -11.3 (0.1) kcal/mol

Q: And the “∆Hion Lit value” [10]?
A: 6.1 (0.2)

Q: What about the Kd [9] of the same molecule?
A: 61 ± 10 µM

Q: With `C[C@]12CCc3c(ccc4cc(O)ccc34)[C@@H]1CCC2=O` [equilenin] as the molecule, how does the “chemical shift of the principal downfield peak upon binding” value ([5]; spectrum not shown) read?
A: 17.6 ppm

Q: And the Kd [11]?
A: 0.0001 to 0.001 µM

Q: And the pKa ([1]; solution of 100 mM ionic strength maintained with NaCl)?
A: 9.7

Q: With `Oc1c(F)c(F)c(F)c(F)c1F` [pentafluorophenol] as the molecule, how does the pKa [7] read?
A: 5.7
